Calls of active or inactive are those of the source. No cut-off for these calls is given here.
Legend:
[1] = system: BMMC; test: Anti-osteoporosis activity in C57BL/6 mouse BMM cells assessed as inhibition of M-CSF/RANKL-induced osteoclastogenesis by measuring reduction in size and number of osteoclasts incubated for 5 days with media replenishment for every 48 hrs measured by TRAP-staining based analysis; format: functional, cell-based; conditions: dose 0.03-10 µM, time 5.0 day
[2] = system: BMMC; test: Anti-osteoporosis activity in C57BL/6 mouse BMM cells assessed as inhibition of M-CSF/RANKL-induced bone resorption by measuring suppression of reabsorbing pits formation after 48 hrs by hydroxyapatite assay using Leica inverted microscope; format: functional, cell-based; conditions: dose 1-10 µM
[3] = system: BMMC; test: Anti-osteoporosis activity in C57BL/6 mouse BMM cells assessed as inhibition of M-CSF/RANKL-induced bone resorption at 10 uM after 48 hrs by hydroxyapatite assay using Leica inverted microscope; format: functional; conditions: C57BL/6, BMMC
[4] = system: BMMC; test: Downregulation of osteoclastogenesis-associated gene expression in C57BL/6 mouse BMM cells assessed as inhibition of M-CSF/RANKL-induced TRAcP expression at 5 uM after 5 days by qRT-PCR analysis; format: functional, cell-based; conditions: time 5.0 day
[5] = system: BMMC; test: Downregulation of osteoclastogenesis-associated gene expression in C57BL/6 mouse BMM cells assessed as inhibition of M-CSF/RANKL-induced CTSK expression at 5 uM after 5 days by qRT-PCR analysis; format: functional, cell-based; conditions: time 5.0 day
[6] = system: BMMC; test: Downregulation of osteoclastogenesis-associated gene expression in C57BL/6 mouse BMM cells assessed as inhibition of M-CSF/RANKL-induced NFATc1 expression at 5 uM after 5 days by qRT-PCR analysis; format: functional, cell-based; conditions: time 5.0 day
[7] = Inhibition of RANKL-induced NFkappaB signaling pathway in mouse RAW264.7 cells assessed as reduction in NFkappaB p65 phosphorylation preincubated for 4 hrs followed by RANKL stimulation for 10 mins and measured by Western blot analysis; format: cell-based; conditions: dose 1-10 µM, time 250.0 min
[8] = system: RAW264.7; test: Inhibition of RANKL-induced NFkappaB signaling pathway in mouse RAW264.7 cells assessed as reduction in IkappaB alpha phosphorylation at 10 uM preincubated for 4 hrs followed by RANKL stimulation for 10 mins and measured by Western blot analysis; format: cell-based; conditions: time 250.0 min
[9] = system: RAW264.7; test: Inhibition of RANKL-induced NFkappaB signaling pathway in mouse RAW264.7 cells assessed as reduction in IkappaB alpha degradation at 10 uM preincubated for 4 hrs followed by RANKL stimulation for 10 mins and measured by Western blot analysis; format: cell-based; conditions: time 250.0 min
[10] = biological target: Transcription factor p65 (Mus musculus) (UniProt Q04207); test: Inhibition of RANKL-induced NFkappaB signaling pathway in mouse RAW264.7 cells assessed as reduction in NFkappaB p65 nuclear translocation at 10 uM preincubated for 4 hrs followed by RANKL stimulation for 10 mins and measured by DAPI staining based immunofluorescence analysis; format: cell-based; conditions: time 250.0 min
[11] = system: C3H 10T1/2; test: Induction of osteoblast differentiation in mouse C3H10T1 /2 cells assessed as increase in ALP expression at 1 to 10 uM measured after 7 days by ALP staining based assay; format: functional, cell-based; conditions: dose 1-10 µM, time 7.0 day
[12] = system: C3H 10T1/2; test: Induction of osteoblast differentiation in mouse C3H10T1/2 cells assessed as increase in calcium nodule formation at 1 to 10 uM measured after 14 days by alizarin red staining assay; format: functional, cell-based; conditions: dose 1-10 µM, time 14.0 day
[13] = system: Mus musculus; test: Antiosteoporotic activity against OVX-induced bone loss C57BL/6 mouse model assessed as increase in trabecular bone mass in femoral metaphysis at 10 mg/kg, po QD for 4 weeks by microCT analysis; format: functional, organism-based; conditions: dose 10.0 mg/kg/day
[14] = system: Mus musculus; test: Antiosteoporotic activity against OVX-induced bone loss C57BL/6 mouse model assessed as increase in bone volume/total bone volume in femoral metaphysis at 10 mg/kg, po QD for 4 weeks; format: functional, organism-based; conditions: dose 10.0 mg/kg/day
[15] = system: Mus musculus; test: Antiosteoporotic activity against OVX-induced bone loss C57BL/6 mouse model assessed as increase in trabecular thickness in femoral metaphysis at 10 mg/kg, po QD for 4 weeks; format: functional, organism-based; conditions: dose 10.0 mg/kg/day
[16] = system: Mus musculus; test: Antiosteoporotic activity against OVX-induced bone loss C57BL/6 mouse model assessed as increase in trabecular number in femoral metaphysis at 10 mg/kg, po QD for 4 weeks; format: functional, organism-based; conditions: dose 10.0 mg/kg/day
[17] = system: Mus musculus; test: Antiosteoporotic activity against OVX-induced bone loss C57BL/6 mouse model assessed as decrease in trabecular spacing in femoral metaphysis at 10 mg/kg, po QD for 4 weeks; format: functional, organism-based; conditions: dose 10.0 mg/kg/day
[18] = system: Mus musculus; test: Antiosteoporotic activity against OVX-induced bone loss C57BL/6 mouse model assessed as decrease in PINP secretion in serum at 10 mg/kg, po QD for 4 weeks; format: functional, organism-based; conditions: dose 10.0 mg/kg/day
[19] = system: Mus musculus; test: Antiosteoporotic activity against OVX-induced bone loss C57BL/6 mouse model assessed as decrease in ACP5 level in serum at 10 mg/kg, po QD for 4 weeks; format: functional, organism-based; conditions: dose 10.0 mg/kg/day
[20] = biological target: MAP kinase p38 (Mus musculus) (UniProt P47811+O08911+Q9WUI1+Q9Z1B7); test: Inhibition of RANKL-induced p38 phosphorylation in mouse RAW264.7 cells at 1 to 10 uM pretreated for 4 hrs prior to RANKL stimulation for 20 mins by western blot analysis; format: cell-based; conditions: dose 1-10 µM, time 260.0 min
[21] = Toxicity in OVX-induced bone loss C57BL/6 mouse model assessed as effect on heart morphology at 10 mg/kg, po QD for 4 weeks; format: organism-based; conditions: in vivo, 672 h
[22] = Toxicity in OVX-induced bone loss C57BL/6 mouse model assessed as effect on liver morphology at 10 mg/kg, po QD for 4 weeks; format: organism-based; conditions: in vivo, 672 h, dose 10 mg/kg/day
[23] = Toxicity in OVX-induced bone loss C57BL/6 mouse model assessed as effect on spleen morphology at 10 mg/kg, po QD for 4 weeks; format: organism-based; conditions: in vivo, 672 h, dose 10 mg/kg/day
[24] = Toxicity in OVX-induced bone loss C57BL/6 mouse model assessed as effect on lung morphology at 10 mg/kg, po QD for 4 weeks; format: organism-based; conditions: in vivo, 672 h, dose 10 mg/kg/day
[25] = Toxicity in OVX-induced bone loss C57BL/6 mouse model assessed as effect on kidney morphology at 10 mg/kg, po QD for 4 weeks; format: organism-based; conditions: in vivo, 672 h
[26] = Toxicity in OVX-induced bone loss C57BL/6 mouse model assessed as effect on thymus morphology at 10 mg/kg, po QD for 4 weeks; format: organism-based; conditions: in vivo, 672 h, dose 10 mg/kg/day
[27] = Toxicity in OVX-induced bone loss C57BL/6 mouse model assessed as effect on serum ALT level at 10 mg/kg, po QD for 4 weeks; format: organism-based; conditions: in vivo, 672 h, dose 10 mg/kg/day
[28] = Toxicity in OVX-induced bone loss C57BL/6 mouse model assessed as effect on serum ALP level at 10 mg/kg, po QD for 4 weeks; format: organism-based; conditions: in vivo, 672 h, dose 10 mg/kg/day
[29] = Toxicity in OVX-induced bone loss C57BL/6 mouse model assessed as effect on serum creatinine level at 10 mg/kg, po QD for 4 weeks; format: organism-based; conditions: in vivo, 672 h, dose 10 mg/kg/day
[30] = Toxicity in OVX-induced bone loss C57BL/6 mouse model assessed as effect on serum CHO level at 10 mg/kg, po QD for 4 weeks; format: organism-based; conditions: in vivo, 672 h, dose 10 mg/kg/day
[31] = Toxicity in OVX-induced bone loss C57BL/6 mouse model assessed as effect on serum CK level at 10 mg/kg, po QD for 4 weeks; format: organism-based; conditions: in vivo, 672 h, dose 10 mg/kg/day
[32] = Toxicity in OVX-induced bone loss C57BL/6 mouse model assessed as effect on serum LDH level at 10 mg/kg, po QD for 4 weeks; format: organism-based; conditions: in vivo, 672 h, dose 10 mg/kg/day

Sequence of Transcription factor p65 (Mus musculus) (Q04207 whole entry): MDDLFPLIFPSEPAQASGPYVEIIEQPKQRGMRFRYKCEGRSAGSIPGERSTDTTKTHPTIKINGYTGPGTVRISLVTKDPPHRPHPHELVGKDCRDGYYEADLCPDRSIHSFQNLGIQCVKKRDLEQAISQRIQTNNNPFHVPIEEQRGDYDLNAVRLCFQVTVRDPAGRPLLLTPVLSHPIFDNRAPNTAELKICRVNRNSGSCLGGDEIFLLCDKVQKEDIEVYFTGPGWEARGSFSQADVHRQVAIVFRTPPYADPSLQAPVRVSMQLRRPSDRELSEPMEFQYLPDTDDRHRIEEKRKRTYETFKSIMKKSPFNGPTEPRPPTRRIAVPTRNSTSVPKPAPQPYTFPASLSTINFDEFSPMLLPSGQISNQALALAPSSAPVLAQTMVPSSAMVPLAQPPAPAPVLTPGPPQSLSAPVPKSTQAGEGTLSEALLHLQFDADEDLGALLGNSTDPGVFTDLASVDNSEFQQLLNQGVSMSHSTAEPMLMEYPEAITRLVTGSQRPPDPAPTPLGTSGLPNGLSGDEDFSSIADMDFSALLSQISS

C=C1CC[C@@H]2[C@](C)(CNCc3ccc(F)cc3)[C@H](O)CC[C@@]2(C)[C@@H]1/C=C/C1=CCOC1=O
Activity [1]: Dose-Dependent Effect
Activity [2]: Dose-Dependent Effect
inhibition at 10 µM [3]: 100%
inhibition [4]: Active
inhibition [5]: Active
inhibition [6]: Active
inhibition [7]: Dose-Dependent Effect
inhibition [8]: Active
inhibition [9]: Active
inhibition [10]: Active
Activity [11]: inactive
Activity [12]: inactive
Activity [13]: Active
Activity [14]: Active
Activity [15]: Active
Activity [16]: Active
Activity [17]: Active
Activity [18]: Active
Activity [19]: Active
inhibition [20]: inactive
Activity [21]: Non-Toxic
Activity [22]: Non-Toxic
Activity [23]: Non-Toxic
Activity [24]: Non-Toxic
Activity [25]: Non-Toxic
Activity [26]: Non-Toxic
Activity [27]: Non-Toxic
Activity [28]: Non-Toxic
Activity [29]: Non-Toxic
Activity [30]: Non-Toxic
Activity [31]: Non-Toxic
Activity [32]: Non-Toxic
